Measurements as given in US7572913B2, “4-substituted piperidine derivatives” (Bioaxone Therapeutique Inc., priority 2004, dated 2009).

Tests used:
NG108 cells = experiment: Bioassay of neurite outgrowth in NG108 cells on plastic; assay type: cell-based; details: compound at 35 micromolar
From the text: (§1) Percent net neurite outgrowth at 35 micromolar concentrations are presented in Table 3 together with percent Rock inhibition at 10 micromolar for three compounds designated BA-1043, BA-1049, and BA-1050. […] It should be noted that percent Rock activity is equal to 100% minus percent Rock inhibition.

ROCKII = target: T1, ROCKII (Rattus norvegicus, UniProt Q62868); experiment: ROCKII inhibition at a single concentration of 10 μM (selectivity histogram, Table 3); assay type: biochemical; details: Table 3; compound at 10 micromolar
T1 construct: purchased Upstate Ltd. (United Kingdom)
Method: Compounds of this invention can be evaluated for kinase inhibition activity as solutions in 100% DMSO at a concentration of 10 μM added to GSK3β(h) and to ROCK-II(r) with ATP present at a concentration of 100 μM. Samples of compounds of this invention can be tested at 10 μM.
The data can be presented as relative ROCK kinase inhibition at a reference compound concentration of 3.5 uM and at 35 μM, wherein 0 signifies complete inhibition under the ATP concentration tested (100 μM). ROCK kinase activity is the opposite of ROCK kinase inhibition, and is compared with the GSKB kinase activity.
Experiments were done in duplicate. ATP was present at 100 μM in the assay.
The values were expressed in a percentage of inhibition of each kinase. Experiments were done in duplicate. ATP was present at 100 μM in the assay.
as §1

human plasma proteins = details: equilibrium dialysis 24 h, 37° C.
From the text: Plasma or serum protein binding assays using the equilibrium dialysis method are used to determine drug availability. Equilibrium dialysis studies using a 96-well microplate format or using conventional 2-chambered Teflon dialysis cells can be used to determine plasma or serum binding, and LC/MS/MS analysis is used for test compound quantification. The Teflon dialysis cell system is commonly used to determine the time to reach equilibrium, the fraction of a compound bound and unbound to plasma proteins and the effect of concentration on the extent of binding. Test compound quantification is performed by HPLC or LC/MS/MS analysis.
To perform equilibrium dialysis the following procedures can be used. To 0.990 mL of thawed plasma (37° C.), a 10 μL aliquot of the stock solutions is added for test compound concentrations of 35 μM. An appropriate volume of buffer (Dulbecco's phosphate buffered saline, pH 7.4) is spiked with each test compound at a concentration of 35 μM. Duplicate aliquots (130 μL) of each spiked plasma and buffer solution are collected prior to dialysis into labeled 1.5 mL polypropylene tubes and stored frozen at −40° C. […] Equilibrium dialysis is performed in a 96-well Teflon dialysis unit. Each well of the unit consists of two chambers separated by a vertically aligned dialysis membrane (regenerated cellulose) with a molecular weight cut-off of 12-14 KDa. The equilibrium dialysis membranes are first pre-soaked in deionized water for 30 min, then soaked in 20% ethanol for 20 min, followed by rinsing twice with deionized water. The equilibrium dialysis apparatus is assembled according to the manufacturer's directions. One chamber of each well is filled with 150 μL of blank buffer (to prevent membrane dehydration). Aliquots (150 μL) of spiked plasma or spiked buffer are added to the opposing chamber in each well. The top of the plate is sealed with an adhesive sealing film to prevent evaporation and to maintain constant pH during incubation. All dialysis experiments with the test compounds and standards are assessed using duplicate samples. The dialysis apparatus is incubated at 37° C. in an orbital shaker/incubator (Lab-Line Enviro) samples are collected following 24 hours of incubation. Samples containing the test compounds are stored frozen at −70° C. until analysis. Samples (100 μL) containing the radiolabels are added and mixed by vortex. The disintegrations per minute (dpm) in each vial are measured with a liquid scintillation counter. The fraction of each test compound and standard unbound (fu) to human serum proteins is calculated according to the following equation:
[formula] wherein Cbuffer and Cplasma represent the concentration of the compound measured in the buffer and plasma chambers, respectively, following dialysis. The fraction bound (fb) to the plasma proteins is determined as: 1−fu.

[1] = patients treated for stroke; cited from earlier work
HUVEC cells [2] = experiment: HUVEC capillary tube formation on ECMatrix; assay type: cell-based, human; details: 15,000 HUVEC cells on ECMatrix, 6-8 h
From the text: HUVEC cells will form capillary tubes when plated on protein substrates composed of proteins found in the extracellular matrix. Typical substrates useful for experiments with HUVEC cells are Matrigel, fibronectin or collagen. Matrigel is composed of several proteins that make up the extracellular matrix. Extracelluar matrix substrates can be plated in tissue culture dishes as 3-dimensional cell culture substrates. Another reagent that can be used as a substrate is ECMatrix™ (Chemicon International, Temecula, Calif.), a reconstituted basement membrane matrix of proteins derived from the Engelbreth Holm-Swarm (EHS) mouse tumor. This substrate gels rapidly at 22-35° C. Thus, ECMatrix™ is thawed overnight on ice or in +4° C. A 96-well plate is pre-chilled, and 100μl of the ECMatrix solution is added to each well. The plate is incubated at 37° C. for at least one hour to allow the matrix solution to solidify. The HUVEC cells are harvested and resuspended in a standard cell growth media supplemented with endothelial cell growth supplements. The presence of serum (0.5-10%) is optional. EGM (endothelial cell growth media) can be used. The HUVEC cells are plated at a density of 5×10^3 to 1×10^4 cells per well onto the surface of the polymerized ECMatrix™, and then incubated overnight in a tissue-culture incubator. Cellular network structures are fully developed by 12 to 18 h, with the first signs apparent after 5-6 h. After 24 h, the cells begin to undergo apoptosis. To study the effect of anti-angiogenic factors, they can be added at the time of cell plating. Optional tissue culture vary depending on the cell type, age, and media growth conditions. The tubes are inspected under an inverted light microscope at 40×-200× magnification. Since there is a lack of contrast of the cellular networks, the cultures can be stained with any of the common cell staining procedures such as Diff-Quick or Wright-Giemsa or crystal-violet. The total capillary tube length measurement method is used to quantify the results. The total length of all the capillary tubes in several (3-10) view-fields is measured by Northern Eclipse software.
Photos are representative of 5 separate experiments.
Tranilast is used as a positive control. For this experiment, 15,000 HUVEC cells were plated on ECMatrix™ and incubated for 6-8 h alone before quantification. Results are presented as mean± SEM for one experiment analyzed in duplicate. […] It is used as a positive control.

HUVEC cells [3] = experiment: Endothelial cell migration, Boyden chamber with VEGF; assay type: cell-based, human; details: 50 μM; 20 h; 10 ng/mL VEGF; fibronectin-coated transwells
Method: A common assay uses Boyden or Transwell chambers, a compartmentalized cell cultures system. Cells are plated in the upper compartment of the Transwell chamber, and the ability of a compound under evaluation to block cell migration through, for example the pores of a Fluoroblok membrane, to the bottom compartment is measured. […] Typically, a chemoattractant is added to the bottom well or compartment. In the case of endothelial cells, a useful chemoattractant is vascular endothelial growth factor (VEGF). […] Experiments can be performed in 24-well plates (individual insert or multiwell insert) or in 96-multiwell insert plates with appropriate correction for volume and cell density. […] Following incubation with the cell dye, fluorescence from invaded cells is read in a fluorescence plate reader with bottom reading capabilities at excitation/emission wavelengths of 485/530 nm without further manipulation. Only those labeled cells that have migrated through the pores of the Fluoroblok membrane will be detected.
The data may be expressed as either fluorescent units (FU) or as “fold migration”, i.e., the FU value of the cells migrating through the fibronectin coated insert membrane in response to a chemoattractant with inhibitor relative to the FU value of a control, i.e., without inhibitor. […]

Caco-2 cells = details: Caco-2 monolayer
Method: After incubation, samples are taken from the apical and basolateral compartment and the concentration of the test compound is determined by LCMS (liquid chromatography/mass spectroscopy).
Stock cultures are sub-cultured every 7 days when cells have reached 80-90% confluency. Studies are conducted with Caco-2 cells, used between passage 21 to 40. Cells are plated on Transwell™ inserts at a density of 1×10^4 cells/well in 24-well culture plates. Cells are incubated at 37° C. under 5% CO2 atmosphere, and media (MEM Earles medium containing 10% FBS, 0.1 mM non-essential amino acids and 1 mM sodium pyruvate) are changed 3 times per week. Cells are used for permeability studies between 20 to 22 days after seeding. On the day of the assay, cell monolayers are washed 3 times. Each wash consists of aspirating liquid from the apical (A) and basolateral (B) sides, and adding 0.5 and 1 mL, respectively, of fresh Dulbecco's phosphate-buffered saline with Mg^2+ and Ca^2+, pH 7.4 (PBS). After the final wash, a volt-ohm-meter is used to determine the trans-epithelial electrical resistance (TEER), a measure of the integrity of the monolayer. Cells are not be used if the TEER values are less than 200 ohms/cm^2. Working solutions of the test compounds are prepared in PBS. […] For each test compound and standard, apical to basolateral (A to B) and basolateral to apical (B to A) transport is measured. The final volume on the basolateral side is 1 mL; the final volume on the apical side is 0.3 mL. The test compound working solution or radiolabeled standard solution is added to the ‘donor’ side. Blank buffer is added to the ‘acceptor’ side. […] The permeability of each compound and control is measured by sampling 200μL of medium from the acceptor compartment at time zero and following 60 minutes of incubation. […] A 3 mL aliquot of liquid scintillant is added to the vials, and disintegrations per minute (dpm) are determined in a liquid scintillation counter. […] The permeability of Lucifer Yellow is measured by sampling 100 μL of medium from the basolateral compartment following 60 minutes of incubation. […]

T1 sequence (Q62868 whole entry): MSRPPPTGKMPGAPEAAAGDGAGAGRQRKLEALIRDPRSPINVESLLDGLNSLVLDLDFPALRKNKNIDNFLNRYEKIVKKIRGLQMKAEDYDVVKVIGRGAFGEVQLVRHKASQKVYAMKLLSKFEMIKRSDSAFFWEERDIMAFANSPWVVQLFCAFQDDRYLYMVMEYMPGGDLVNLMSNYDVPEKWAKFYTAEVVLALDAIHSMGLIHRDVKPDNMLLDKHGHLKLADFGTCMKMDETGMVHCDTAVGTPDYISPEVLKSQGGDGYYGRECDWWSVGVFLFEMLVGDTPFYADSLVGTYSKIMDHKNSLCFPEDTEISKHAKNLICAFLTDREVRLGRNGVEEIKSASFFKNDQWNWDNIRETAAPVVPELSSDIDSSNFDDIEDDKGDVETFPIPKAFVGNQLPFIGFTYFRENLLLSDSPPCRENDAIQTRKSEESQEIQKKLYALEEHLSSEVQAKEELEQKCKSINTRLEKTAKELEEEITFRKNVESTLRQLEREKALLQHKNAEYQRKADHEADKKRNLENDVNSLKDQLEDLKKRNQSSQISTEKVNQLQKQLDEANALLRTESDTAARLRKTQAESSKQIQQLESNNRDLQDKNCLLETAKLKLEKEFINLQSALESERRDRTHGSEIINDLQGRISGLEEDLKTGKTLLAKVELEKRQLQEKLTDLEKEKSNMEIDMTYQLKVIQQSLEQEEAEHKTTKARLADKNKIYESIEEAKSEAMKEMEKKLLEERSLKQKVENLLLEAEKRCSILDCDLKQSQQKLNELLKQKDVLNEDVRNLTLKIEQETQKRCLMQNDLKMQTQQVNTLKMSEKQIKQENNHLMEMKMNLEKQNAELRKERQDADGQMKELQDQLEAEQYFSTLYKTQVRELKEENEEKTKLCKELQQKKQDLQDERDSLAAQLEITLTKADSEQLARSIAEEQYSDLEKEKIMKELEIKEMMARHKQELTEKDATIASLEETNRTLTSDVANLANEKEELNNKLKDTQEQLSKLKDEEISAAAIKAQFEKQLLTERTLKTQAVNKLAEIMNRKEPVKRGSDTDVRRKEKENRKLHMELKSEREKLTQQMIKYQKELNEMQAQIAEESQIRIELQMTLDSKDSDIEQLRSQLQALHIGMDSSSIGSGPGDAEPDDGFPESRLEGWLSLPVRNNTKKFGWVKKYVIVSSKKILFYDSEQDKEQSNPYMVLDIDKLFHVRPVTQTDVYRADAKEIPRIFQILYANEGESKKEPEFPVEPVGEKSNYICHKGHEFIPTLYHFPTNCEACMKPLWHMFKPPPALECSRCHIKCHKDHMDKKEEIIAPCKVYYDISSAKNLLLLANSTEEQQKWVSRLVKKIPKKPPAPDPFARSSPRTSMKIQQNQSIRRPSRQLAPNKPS

Compound: CCCC(N)C1CCN(S(=O)(=O)c2cccc3cnccc23)CC1.Cl.Cl (racemic) [BA-1050, (R,S)-N-(5″-isoquinolinesulfonyl)-4-[butan-1′-amino]piperidine dihydrochloride]
- Percent Net Neurite Outgrowth at 35 micromolar (NG108 cells): 20.2%
- Percent Rock inhibition at 10 micromolar (ROCKII): 79%

Compound: CC(C)NC[C@H](O)COc1cccc2ccccc12 [(S)-Propranolol, reference compound]
- Bound (%) (human plasma proteins): 91.3%
- Unbound (%) (human plasma proteins): 8.67%

Compound: CN(N)C1CCN(S(=O)(=O)c2cccc3cnccc23)CC1.Cl.Cl [BA-1043, N-(5′″-isoquinolinesulfonyl)-4-[N′-(1′-methyl)hydrazino]piperidine dihydrochloride]
- Percent Net Neurite Outgrowth at 35 micromolar (NG108 cells): 15.2%
- Percent Rock inhibition at 10 micromolar (ROCKII): 61%

Compound: CC1=NN(c2ccccc2)C(=O)C1 [Radicut, 3-methyl-1-phenyl-2-pyrazoline-5-one]
- adverse effect in clinical use (in words) [1]: kidney toxicity

Compound: COc1ccc(C=CC(=O)Nc2ccccc2C(=O)O)cc1OC [Tranilast, N-(3′,4′-dimethoxycinnamoyl)anthranilic acid, reference compound]
- relative amount of tube formation (HUVEC cells [2]; 10 μg/mL): approximately 35 % relative to control
- relative amount of tube formation (HUVEC cells [2]; 50 μg/mL): approximately 30 % relative to control
- migration, % of the amount observed with Ctl+VEGF (HUVEC cells [3]): approximately 30%

Compound: OC[C@@H](O)[C@@H](O)[C@H](O)[C@H](O)CO [[^3H]-Mannitol, reference compound]
- B − A/A − B Papp ratio (Caco-2 cells): 0.81
